From ChEMBL document CHEMBL1138707, “Bridgehead modification of trihalocycloheptabenzopyridine leads to a potent farnesyl protein transferase inhibitor with improved oral metabolic stability” (Bioorg Med Chem Lett, 2004) come the findings set out here.

A short description of data set [1]: Area under the curve in rats by administering perorally. Type of data set: ADME. The following applies: rat, in vivo, po.
In data set [2] the target is T1, Protein farnesyltransferase (Homo sapiens, UniProt P49354+P49356). Nature of the data set: Percent inhibition of [3H]FPP incorporation into H-ras CVLS by Farnesyltransferase at 17. Type of data set: protein-complex assay. The following applies: concentration not given here.
Data set [3] is described as follows: Inhibition of H-Ras transformed NIH3T3 cell proliferation. Type of data set: functional, cell-based.
Data set [4] in a line: Inhibition of soft agar colony formation in H-Ras transformed cells. The format is functional, cell-based.
A short description of data set [5]: Oral bioavailability in rat. Type of data set: ADME, organism-based. The conditions noted are these: in vivo.
A short description of data set [6]: Inhibition of COS cell proliferation. The format is functional, cell-based.
Data set [7] concerns the target T1, Protein farnesyltransferase. Nature of the data set: Inhibition of [3H]FPP incorporation into H-ras CVLS by Farnesyltransferase. The format is protein-complex assay.

`NC(=O)N1CCC(CC(=O)N2CCC([C@@H]3c4ncc(Br)cc4C=Cc4cc(Cl)cc(Br)c43)CC2)CC1`: in data set [1], the AUC came to 7 µg/h/mL.
What is called inhibition is the share of the control response that was lost under treatment. For the molecule `O=C(Cc1cc[n+]([O-])cc1)N1CCC([C@H]2c3ncc(Br)cc3C=Cc3cc(Cl)cc(Br)c32)CC1`, the inhibition in data set [2] amounted to 44%.
As a reminder, the IC50 is the concentration that inhibits the measured activity by half. High values mean lower potency, low ones higher potency. As a reminder, the bioavailability is the share of a dose that reaches the circulation, judged against a reference dose that is usually intravenous. The low end stands for little systemic uptake, the high end for much systemic uptake. For the molecule `NC(=O)N1CCC(CC(=O)N2CCC([C@H]3c4ncc(Br)cc4CCc4cc(Cl)cc(Br)c43)CC2)CC1` [LONAFARNIB], the IC50 in data set [3] worked out at 72000 nM; in data set [4], 70 nM; in data set [6], 10 nM. For the same molecule, the bioavailability in data set [5] stood at 76%. Further, the AUC in data set [1] was determined as 24.1 µg/h/mL.
Molecule `CS(=O)(=O)N1CCC([C@@H]2c3ncc(Br)cc3C=Cc3cc(Cl)cc(Br)c32)CC1` came in with an IC50 in data set [4] greater than 500 nM. This molecule gave an AUC in data set [1] of 45.4 µg/h/mL.
In the case of `O=C(Cc1cc[n+]([O-])cc1)N1CCC([C@@H]2c3ncc(Br)cc3C=Cc3cc(Cl)cc(Br)c32)CC1`, the IC50 in data set [4] turned out to be 30 nM; in data set [7] it was 0.32 nM. In data set [1], the AUC came out at 15.5 µg/h/mL.
